Laboratory results from patent publication US12653900B2, “Antibody drug conjugates comprising ecteinascidin derivatives” (PHARMA MAR, S.A., priority 2018, dated 2026).
In brackets after ≈: the same amount, converted by molar mass. Several values for one entry are separate records, joined by “and”; a condition that tells them apart may be missing. Equal entries are not always repeated. Where two headings read alike, the source gives them in different places.

Key:
MCF-7 (HER2−) = assay: In vitro cytotoxicity of ADCs and related reagents, SRB assay; format: cell-based; conditions: Homo sapiens, MCF7
Description: (§1) Sulforhodamine B colorimetric assay for cytotoxicity screening. […] Briefly, cells were seeded in 96-well microtiter plates and allowed to stand for 24 hours in drug-free medium before treatment with vehicle alone or with the tested substances for 72 hours.
(§2) Cell survival was expressed as percentage of control, untreated cell survival.

HCC-1954 (HER2+) = assay: as above; format: cell-based; conditions: Homo sapiens, HCC1954
Description: as §1, §2

SK-BR-3 (HER2+) = assay: as above; format: cell-based; conditions: Homo sapiens
Description: as §1, §2

MDA-MB-231 (HER2−) = assay: as above; format: cell-based; conditions: Homo sapiens
Description: as §1, §2

[1] = test system: SK-BR-3, HCC-1954, MDA-MB-231 and MCF-7 cells; assay: In vitro cytotoxicity across the HER2 breast cancer cell panel and HER2 selectivity; format: cell-based
Description: For SK-BR-3, HCC-1954, MDA-MB-231 and MCF-7 cells, a colorimetric assay using Sulforhodamine B (SRB) was adapted for quantitative measurement of cell growth and cytotoxicity, as described in V. Vichai and K. Kirtikara. Sulforhodamine B colorimetric assay for cytotoxicity screening. Nature Protocols, 2006, 1, 1112-1116. Briefly, cells were seeded in 96-well microtiter plates and allowed to stand for 24 hours in drug-free medium before treatment with vehicle alone or with the tested substances for 72 hours.
as §2
Standard dose-response (DR) curves for 72 hours incubation with the tested substances were performed.

PSN1 = format: cell-based; conditions: PSN1, 72 hours treatment, SRB
Description: (§3) Evaluation of Cytotoxic Activity Using the SRB and the MTT Colorimetric Assays

A549 = format: cell-based; conditions: A549, 72 hours treatment, SRB
Description: as §3

HT29 = assay: cells; format: cell-based; conditions: HT29, 72 hours treatment, SRB
Description: as §3

MDA-MB-231 = assay: cells; format: cell-based; conditions: MDA-MB-231, 72 hours treatment, SRB
Description: as §3

NB 4 (CD13+) = assay: In vitro cytotoxicity of ADCs and related reagents, MTT assay; format: cell-based, human; conditions: NB-4 cells, geometric mean of the IC50 values of three experiments
Description: (§4) Briefly, cells were seeded in 96-well trays and treated as above and after 72 hours of exposure to the tested substances cellular viability was estimated from conversion of MTT (Sigma, St Louis, MO, USA) to its coloured reaction product, MTT-formazan, which was dissolved in DMSO to measure its absorbance at 540 nm in a microplate spectrophotometer.
as §2

RPMI 8226 (CD13−) = assay: as above; format: cell-based, human; conditions: RPMI8226 cells, geometric mean of the IC50 values of three experiments
Description: as §4, §2

Raji (CD13−) = assay: as above; format: cell-based, human; conditions: Raji cells, geometric mean of the IC50 values of three experiments
Description: as §4, §2

[2] = test system: HT-1080, NB 4, Raji and RPMI 8226 cells; assay: In vitro cytotoxicity across the CD13 cell panel and CD13 selectivity; format: cell-based, human; conditions: CD13 positive and negative cell lines
Description: as §2

[3] = MCF-7, HER2 negative, 72 hours, read-out: IC50
[4] = HCC-1954, HER2 positive, 72 hours, read-out: IC50
[5] = SK-BR-3, HER2 positive, 72 hours, read-out: IC50
[6] = MDA-MB-231, HER2 negative, 72 hours, read-out: IC50
[7] = Homo sapiens, read-out: IC50 values, range over the four cell lines
[8] = Homo sapiens, read-out: geometric mean IC50 value across the whole cell panel
[9] = read-out: LC50 (the source's name)

Compound | IC50 (MCF-7 (HER2−); [3]) | IC50 (HCC-1954 (HER2+); [4]) | IC50 (SK-BR-3 (HER2+); [5]) | IC50 (MDA-MB-231 (HER2−); [6]) | IC50 [1, 7] | IC50 [1, 8] | TGI (PSN1) [Molar] | TGI (A549) [Molar] | TGI (HT29) [Molar] | further results
COc1c(C)cc2c(c1O)[C@@H]1[C@@H]3[C@@H]4SC[C@]5(N[C@@H](CNC(=O)OCc6ccc(NC(=O)[C@H](C)NC(=O)[C@@H](NC(=O)CCOCCOCCOCCOCCNC(=O)CCN7C(=O)C=CC7=O)C(C)C)cc6)Cc6c5[nH]c5ccccc65)C(=O)OC[C@@H](c5c6c(c(C)c(OC(C)=O)c54)OCO6)N3[C@@H](O)[C@H](C2)N1C [DL 5] | 0.17 µg/mL and 113 nM | 0.191 µg/mL and 127 nM | 0.0981 µg/mL and 65.3 nM | 0.0981 µg/mL and 65.3 nM | 0.1 µg/mL to 0.19 µg/mL and 65.3 nM to 127 nM | 0.13 µg/mL and 88.4 nM |  |  |  | 
COc1c(C)cc2c(c1O)[C@@H]1[C@@H]3[C@@H]4SC[C@]5(N[C@@H](CNC(=O)OCc6ccc(NC(=O)[C@H](CCCNC(N)=O)NC(=O)[C@@H](NC(=O)CCCCCN7C(=O)C=CC7=O)C(C)C)cc6)Cc6c5[nH]c5ccccc65)C(=O)OC[C@@H](c5c6c(c(C)c(OC(C)=O)c54)OCO6)N3[C@@H](O)[C@H](C2)N1C [DL 6] |  |  |  |  | 0.04 µg/mL to 0.3 µg/mL and 31 nM to 197 nM | 0.11 µg/mL and 78.9 nM |  |  |  | IC50 (MCF-7 (HER2−); MCF-7 cells, 72 hours incubation, read-out: IC50 MCF-7 (HER2 negative)): 0.273 µg/mL and 197 nM; IC50 (HCC-1954 (HER2+); HCC-1954 cells, 72 hours incubation, read-out: IC50 HCC-1954 (HER2 positive)): 0.171 µg/mL and 124 nM; IC50 (SK-BR-3 (HER2+); SK-BR-3 cells, 72 hours incubation, read-out: IC50 SK-BR-3 (HER2 positive)): 0.0709 µg/mL and 51.3 nM; IC50 (MDA-MB-231 (HER2−); MDA-MB-231 cells, 72 hours incubation, read-out: IC50 MDA-MB-231 (HER2 negative)): 0.0429 µg/mL and 31 nM
COc1ccc2[nH]c3c(c2c1)C[C@@H](CN)N[C@]31CS[C@@H]2c3c(OC(C)=O)c(C)c4c(c3[C@H](COC1=O)N1[C@@H]2[C@H]2c3c(cc(C)c(OC)c3O)C[C@@H]([C@@H]1O)N2C)OCO4 [27-S] |  |  |  |  |  |  | 2.83E-09 | 1.12E-08 | 1.35E-09 | 
COc1c(C)cc2c(c1O)[C@@H]1[C@@H]3[C@@H]4SC[C@]5(N[C@@H](CNC(=O)OCc6ccc(NC(=O)[C@H](CCCNC(N)=O)NC(=O)[C@@H](NC(=O)CCOCCOCCOCCOCCNC(=O)CCN7C(=O)C=CC7=O)C(C)C)cc6)Cc6c5[nH]c5ccccc65)C(=O)OC[C@@H](c5c6c(c(C)c(OC(C)=O)c54)OCO6)N3[C@@H](C#N)[C@H](C2)N1C [DL 2] | 0.469 µg/mL and 294 nM | 0.31 µg/mL and 194 nM | 0.2 µg/mL and 125 nM | 0.2 µg/mL and 125 nM | 0.2 µg/mL to 0.47 µg/mL and 125 nM to 294 nM | 0.28 µg/mL and 173 nM |  |  |  | 
COc1c(C)cc2c(c1O)C1C3C4SCC5(NC(COC(C)=O)Cc6c5[nH]c5ccccc65)C(=O)OCC(c5c6c(c(C)c(OC(C)=O)c54)OCO6)N3C(C#N)C(C2)N1C (stereo not shown) [3a-S] |  |  |  |  |  |  | 3.59E-09 | 3.23E-09 | 3.23E-09 | GI50 (PSN1): 2.15 nM; CC50 (PSN1; [9]): 12 nM; GI50 (A549): 3.11 nM; LC50 (concentration giving 50% net cell kill) (A549): > 120 nM; GI50 (MDA-MB-231): 2.87 nM; TGI (MDA-MB-231): 3.59E-09 Molar; CC50 (MDA-MB-231; [9]): 4.9 nM; GI50 (HT29): 2.99 nM; CC50 (HT29; [9]): > 120 nM
COc1c(C)cc2c(c1O)[C@@H]1[C@@H]3[C@@H]4SC[C@]5(N[C@@H](CN)Cc6c5oc5ccccc65)C(=O)OC[C@@H](c5c6c(c(C)c(OC(C)=O)c54)OCO6)N3[C@@H](C#N)[C@H](C2)N1C [46-R] |  |  |  |  |  |  |  |  |  | IC (TGI) (MDA-MB-231; Homo sapiens): 1.39 nM; IC (TGI) (HT29; Homo sapiens, HT-29): 1.39 nM
COc1c(C)cc2c(c1O)[C@@H]1[C@@H]3[C@@H]4SC[C@]5(N[C@@H](CNC(=O)OCc6ccc(NC(=O)[C@H](C)NC(=O)[C@@H](NC(=O)CCOCCOCCOCCOCCNC(=O)CCN7C(=O)C=CC7=O)C(C)C)cc6)Cc6c5[nH]c5ccccc65)C(=O)OC[C@@H](c5c6c(c(C)c(OC(C)=O)c54)OCO6)N3[C@@H](C#N)[C@H](C2)N1C [DL 3] | 0.279 µg/mL and 185 nM | 0.24 µg/mL and 159 nM | 0.16 µg/mL and 106 nM | 0.15 µg/mL and 99.3 nM | 0.15 µg/mL to 0.28 µg/mL and 99.3 nM to 185 nM | 0.2 µg/mL and 133 nM |  |  |  | 
COc1ccc2[nH]c3c(c2c1)C[C@H](CN)N[C@]31CS[C@@H]2c3c(OC(C)=O)c(C)c4c(c3[C@H](COC1=O)N1[C@@H]2[C@H]2c3c(cc(C)c(OC)c3O)C[C@@H]([C@@H]1O)N2C)OCO4 [27-R] |  |  |  |  |  |  | 1.17E-09 | 3.93E-09 | 5.53E-10 | TGI (MDA-MB-231): 5.41E-10 Molar
COc1c(C)cc2c(c1O)[C@@H]1[C@@H]3[C@@H]4SC[C@]5(N[C@@H](CNC(=O)OCc6ccc(NC(=O)[C@H](CCCNC(N)=O)NC(=O)[C@@H](NC(=O)CCCCCN7C(=O)C=CC7=O)C(C)C)cc6)Cc6c5[nH]c5ccccc65)C(=O)OC[C@@H](c5c6c(c(C)c(OC(C)=O)c54)OCO6)N3[C@@H](C#N)[C@H](C2)N1C [DL 1] | 0.433 µg/mL and 311 nM | 0.18 µg/mL and 129 nM | 0.116 µg/mL and 83.1 nM | 0.0728 µg/mL and 52.3 nM | 0.07 µg/mL to 0.43 µg/mL and 52.3 nM to 311 nM | 0.16 µg/mL and 115 nM |  |  |  | 
COc1c(C)cc2c(c1O)[C@@H]1[C@@H]3[C@@H]4SC[C@]5(N[C@@H](CN)Cc6c5[nH]c5ccccc65)C(=O)OC[C@@H](c5c6c(c(C)c(OC(C)=O)c54)OCO6)N3[C@@H](C#N)[C@H](C2)N1C [11-R] |  |  |  |  |  |  |  |  |  | IC50 NB-4 (CD13 positive) (NB 4 (CD13+)): 0.46 ng/mL (≈ 0.58 nM); IC50 (NB 4 (CD13+); read-out: IC50 NB-4 (CD13 positive)): 0.58 nM; IC50 RPMI8226 (CD13 negative) (RPMI 8226 (CD13−)): 0.928 ng/mL (≈ 1.17 nM); IC50 (RPMI 8226 (CD13−); read-out: IC50 RPMI8226 (CD13 negative)): 1.17 nM; IC50 Raji (CD13 negative) (Raji (CD13−)): 0.967 ng/mL (≈ 1.22 nM); IC50 (Raji (CD13−); read-out: IC50 Raji (CD13 negative)): 1.22 nM; geometric mean IC50 value across the whole cell panel ([1]; SK-BR-3, HCC-1954, MDA-MB-231, MCF-7): 0.79 ng/mL; IC50 ([1]; SK-BR-3, HCC-1954, MDA-MB-231, MCF-7, read-out: geometric mean IC50 value across the whole cell panel): 0.994 nM; geometric mean IC50 value across the whole cell panel [2]: 0.84 ng/mL; IC50 ([2]; read-out: geometric mean IC50 value across the whole cell panel): 1.06 nM
